{
  "source": "patent US20250129344A1",
  "about": "“MODIFIED GLUTAMATE DEHYDROGENASE AND APPLICATION THEREOF” (Hunan Lier Biotech Co., Ltd., priority 2021, published 2025)",
  "type_in_all_cases": "biochemical",
  "details_in_all_cases": "PPO 5-100 mM, NADPH 0.15 mM, NH4Cl 50 mM, PBS pH 7.5, 30° C., diluted crude enzyme, 340 nm",
  "key": {"[1]": {"molecular_target": "T1, Lysinibacillus sphaericus glutamate dehydrogenase (LsGluDH, SEQ ID NO: 2) variant A175G-V173S, SEQ ID NO: 34 (Lysinibacillus pinottii, UniProt A0ABT2DNY0, A175G/V173S)", "T1 sequence (A0ABT2DNY0 1-457 V173S/A175G)": "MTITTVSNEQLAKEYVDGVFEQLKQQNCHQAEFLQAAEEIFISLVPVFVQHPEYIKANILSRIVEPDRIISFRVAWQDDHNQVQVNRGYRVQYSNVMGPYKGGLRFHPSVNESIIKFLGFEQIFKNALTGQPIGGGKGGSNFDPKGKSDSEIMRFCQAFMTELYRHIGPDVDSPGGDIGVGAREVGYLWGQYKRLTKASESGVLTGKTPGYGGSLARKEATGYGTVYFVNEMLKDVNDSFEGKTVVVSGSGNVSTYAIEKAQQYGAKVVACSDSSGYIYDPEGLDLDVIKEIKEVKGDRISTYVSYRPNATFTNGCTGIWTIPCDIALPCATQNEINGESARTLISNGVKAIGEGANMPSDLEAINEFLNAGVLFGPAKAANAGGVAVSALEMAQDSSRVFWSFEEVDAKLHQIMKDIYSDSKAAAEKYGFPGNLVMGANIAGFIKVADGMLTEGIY", "assay": "Dynamic properties (Michaelis-Menten) of LsGluDH mutant, PPO reductive amination", "experimental": "(§1) A plurality of reaction systems (200 μL) comprising PBS of 100 mM pH 7.5 (pH was adjusted with aqueous ammonia solution), NADPH (reductive) of 0.15 mM, NH4Cl of 50 mM, diluted (500 folds) crude enzyme solution of 10% volume and the substrate PPO at various concentrations (5-100 mM) were formulated on a 96-well plate. The intensity of the UV absorption at 340 nm was detected at 30° C., and the rate of change in absorption over time (mA/min) was recorded. The obtained parameters were plugged into Michaelis-Menten equation, in which the reaction velocity was calculated with the rate of change in absorption.\n(§2) The mutants were prepared with the coding nucleic acid of LsGluDH (SEQ ID NO: 2) as the template, and the enzyme activities and the dynamic parameters Vmax and Km were measured, according to the method of Example 1. The resulted mutants and the enzyme activities and the dynamic parameters thereof are shown in Table 2, and the relative enzyme activity means the percentage of the enzyme activity of the mutant to the enzyme activity of the mutant of SEQ ID NO: 31."}, "[2]": {"molecular_target": "T2, Lysinibacillus sphaericus glutamate dehydrogenase (LsGluDH, SEQ ID NO: 2) variant A175G, SEQ ID NO: 31 (Lysinibacillus pinottii, UniProt A0ABT2DNY0, A175G)", "T2 sequence (A0ABT2DNY0 1-457 A175G)": "T1 sequence (A0ABT2DNY0 1-457 V173S/A175G) with S173V", "assay": "Dynamic properties (Michaelis-Menten) of LsGluDH mutant, PPO reductive amination", "experimental": "as §1, §2"}, "[3]": {"molecular_target": "T3, Lysinibacillus sphaericus glutamate dehydrogenase (LsGluDH, SEQ ID NO: 2) variant A175G-V173G, SEQ ID NO: 35 (Lysinibacillus pinottii, UniProt A0ABT2DNY0, A175G/V173G)", "T3 sequence (A0ABT2DNY0 1-457 V173G/A175G)": "T1 sequence (A0ABT2DNY0 1-457 V173S/A175G) with S173G", "assay": "Dynamic properties (Michaelis-Menten) of LsGluDH mutant, PPO reductive amination", "experimental": "as §1, §2"}, "[4]": {"molecular_target": "T4, Lysinibacillus sphaericus glutamate dehydrogenase (LsGluDH, SEQ ID NO: 2) variant A175G-I133V, SEQ ID NO: 33 (Lysinibacillus pinottii, UniProt A0ABT2DNY0, A175G/I133V)", "T4 sequence (A0ABT2DNY0 1-457 A175G/I133V)": "T1 sequence (A0ABT2DNY0 1-457 V173S/A175G) with I133V, S173V", "assay": "Dynamic properties (Michaelis-Menten) of LsGluDH mutant, PPO reductive amination", "experimental": "as §1, §2"}, "[5]": {"tested_on": "Bacillus velezensis glutamate dehydrogenase (BvGluDH, SEQ ID NO: 1) variant A175G-A182R, SEQ ID NO: 11", "assay": "Dynamic properties (Michaelis-Menten) of BvGluDH mutant, PPO reductive amination", "experimental": "as §1\nas §2, with “BvGluDH” for “LsGluDH”, “1)” for “2)”, “1,” for “2,”, “3.” for “31.”"}},
  "note": "Substitutions are numbered along the chain they refer to.",
  "data": [
    {"smiles": "CP(=O)(O)CCC(=O)C(=O)O", "note": "[PPO, 2-carbonyl-4-(hydroxymethylphosphono) butyric acid]", "values": [
      {"measurement": "Km", "setting": "[1]", "value": 62, "unit": "mM"},
      {"measurement": "Vmax", "setting": "[1]", "value": 106, "unit": "mA/min"},
      {"measurement": "Km", "setting": "[2]", "value": 49, "unit": "mM"},
      {"measurement": "Vmax", "setting": "[2]", "value": 39, "unit": "mA/min"},
      {"measurement": "Km", "setting": "[3]", "value": 49, "unit": "mM"},
      {"measurement": "Vmax", "setting": "[3]", "value": 64, "unit": "mA/min"},
      {"measurement": "Km", "setting": "[4]", "value": 35, "unit": "mM"},
      {"measurement": "Vmax", "setting": "[4]", "value": 39, "unit": "mA/min"},
      {"measurement": "Km", "setting": "[5]", "value": 46, "unit": "mM"},
      {"measurement": "Vmax", "setting": "[5]", "value": 61, "unit": "mA/min"}
    ]}
  ]
}
